Tested on: MDA-MB-231 multicell spheroids, viability
Assay: Anticancer human tumor MDA-MB-231 cell line growth inhibition [PI3K];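 further: spheroids exposed to agents for seven days before reading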;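 on viability, T/C: percent of vehicle control luminescence with DMSO treated spheroids as 100%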
Conditions: for IC50: curve of first compound; for viability, T/C: stronger effect = lower value
How it was run: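 Three cell types, namely tumor cells, endothelial cells and mesenchymal stem cells, formed each spheroid. Combinations with four PI3K inhibitors were screened at clinically achievable concentrations decreasing by half-log, and spheroid viability was recorded.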

[1] = second compound 0.0316 µM, first compound 0.0316 µM
[2] = second compound 0.0316 µM, first compound 0.1 µM
[3] = second compound 0.0316 µM, first compound 0.316 µM
[4] = second compound 0.0316 µM, first compound 1 µM
[5] = second compound 0.1 µM, first compound 0.0316 µM
[6] = second compound 0.1 µM, first compound 0.1 µM
[7] = second compound 0.1 µM, first compound 0.316 µM
[8] = second compound 0.1 µM, first compound 1 µM
[9] = second compound 0.316 µM, first compound 0.0316 µM
[10] = second compound 0.316 µM, first compound 0.1 µM
[11] = second compound 0.316 µM, first compound 0.316 µM
[12] = second compound 0.316 µM, first compound 1 µM
[13] = second compound 1 µM, first compound 0.0316 µM
[14] = second compound 1 µM, first compound 0.1 µM
[15] = second compound 1 µM, first compound 0.316 µM
[16] = second compound 1 µM, first compound 1 µM
[17] = second compound 3.16 µM, first compound 0.0316 µM
[18] = second compound 3.16 µM, first compound 0.1 µM
[19] = second compound 3.16 µM, first compound 0.316 µM
[20] = second compound 3.16 µM, first compound 1 µM
[21] = second compound 10 µM, first compound 0.0316 µM
[22] = second compound 10 µM, first compound 0.1 µM
[23] = second compound 10 µM, first compound 0.316 µM
[24] = second compound 10 µM, first compound 1 µM

C=CC(=O)N1CCN(c2nc(=O)n(-c3c(C)ccnc3C(C)C)c3nc(-c4c(O)cccc4F)c(F)cc23)C(C)C1 (centres undefined) + Cc1nc(NC(=O)N2CCCC2C(N)=O)sc1-c1ccnc(C(C)(C)C(F)(F)F)c1
IC50 (second compound 0.0316 µM): > 10 µM
IC50 (second compound 0.1 µM): > 10 µM
IC50 (second compound 0.316 µM): > 10 µM
IC50 (second compound 1 µM): > 10 µM
IC50 (second compound 3.16 µM): 6.06 µM
IC50 (second compound 10 µM): 3.95 µM
viability, T/C [1]: 97.5%
viability, T/C [2]: 98.3%
viability, T/C [3]: 96.4%
viability, T/C [4]: 103%
viability, T/C (second compound 0.0316 µM, first compound 3.16 µM): 120%
viability, T/C (second compound 0.0316 µM, first compound 10 µM): 102%
viability, T/C [5]: 86.5%
viability, T/C [6]: 85.4%
viability, T/C [7]: 93.2%
viability, T/C [8]: 108%
viability, T/C (second compound 0.1 µM, first compound 3.16 µM): 109%
viability, T/C (second compound 0.1 µM, first compound 10 µM): 88.4%
viability, T/C [9]: 74.8%
viability, T/C [10]: 79.1%
viability, T/C [11]: 79%
viability, T/C [12]: 82.8%
viability, T/C (second compound 0.316 µM, first compound 3.16 µM): 87.9%
viability, T/C (second compound 0.316 µM, first compound 10 µM): 66.9%
viability, T/C [13]: 63%
viability, T/C [14]: 66.5%
viability, T/C [15]: 68.2%
viability, T/C [16]: 71.1%
viability, T/C (second compound 1 µM, first compound 3.16 µM): 62.1%
viability, T/C (second compound 1 µM, first compound 10 µM): 48.5%
viability, T/C [17]: 66.3%
viability, T/C [18]: 66.8%
viability, T/C [19]: 68%
viability, T/C [20]: 65.4%
viability, T/C (second compound 3.16 µM, first compound 3.16 µM): 60.1%
viability, T/C (second compound 3.16 µM, first compound 10 µM): 42.1%
viability, T/C [21]: 67.6%
viability, T/C [22]: 60.3%
viability, T/C [23]: 60%
viability, T/C [24]: 58.5%
viability, T/C (second compound 10 µM, first compound 3.16 µM): 54.7%
viability, T/C (second compound 10 µM, first compound 10 µM): 36.7%

CCN1CCN(Cc2ccc(Nc3ncc(F)c(-c4cc(F)c5nc(C)n(C(C)C)c5c4)n3)nc2)CC1 + Cc1nc(NC(=O)N2CCCC2C(N)=O)sc1-c1ccnc(C(C)(C)C(F)(F)F)c1
IC50 (second compound 0.0316 µM): 0.261 µM
IC50 (second compound 0.1 µM): 0.0893 µM
IC50 (second compound 0.316 µM): 0.0309 µM
IC50 (second compound 1 µM): 0.0202 µM
IC50 (second compound 3.16 µM): 0.0236 µM
IC50 (second compound 10 µM): 0.0137 µM
viability, T/C (second compound 0.0316 µM, first compound 0.00316 µM): 90.9%
viability, T/C (second compound 0.0316 µM, first compound 0.01 µM): 75.5%
viability, T/C [1]: 66.3%
viability, T/C [2]: 54.2%
viability, T/C [3]: 45.3%
viability, T/C [4]: 49.6%
viability, T/C (second compound 0.1 µM, first compound 0.00316 µM): 82.4%
viability, T/C (second compound 0.1 µM, first compound 0.01 µM): 74.1%
viability, T/C [5]: 59.8%
viability, T/C [6]: 50.5%
viability, T/C [7]: 40.8%
viability, T/C [8]: 46.4%
viability, T/C (second compound 0.316 µM, first compound 0.00316 µM): 72.3%
viability, T/C (second compound 0.316 µM, first compound 0.01 µM): 66.7%
viability, T/C [9]: 50.3%
viability, T/C [10]: 40.9%
viability, T/C [11]: 41.3%
viability, T/C [12]: 47.9%
viability, T/C (second compound 1 µM, first compound 0.00316 µM): 65.8%
viability, T/C (second compound 1 µM, first compound 0.01 µM): 57.3%
viability, T/C [13]: 45.8%
viability, T/C [14]: 40.2%
viability, T/C [15]: 40%
viability, T/C [16]: 47.7%
viability, T/C (second compound 3.16 µM, first compound 0.00316 µM): 66.2%
viability, T/C (second compound 3.16 µM, first compound 0.01 µM): 58.6%
viability, T/C [17]: 47.7%
viability, T/C [18]: 41.6%
viability, T/C [19]: 37.6%
viability, T/C [20]: 48.4%
viability, T/C (second compound 10 µM, first compound 0.00316 µM): 66.2%
viability, T/C (second compound 10 µM, first compound 0.01 µM): 53.2%
viability, T/C [21]: 44.4%
viability, T/C [22]: 42%
viability, T/C [23]: 39.4%
viability, T/C [24]: 47.5%

From PubChem BioAssay AID1963958 (Molecular Pharmacology Branch, DTP, NCI, 2024)
